Experimental data: US11459339B2, “Biaryl derivative, preparation method thereof and pharmaceutical application thereof” (Abbisko Therapeutics Co., Ltd., priority 2018, dated 2022)
pEC50, pIC50: −log10 of the molar value.

How the values were obtained:
[1] = biological target: interaction between PD-1 and PD-L1 (Homo sapiens (Human), UniProt Q9NZQ7); assay: PD1-PDL1 HTRF binding activity test (Cisbio PD-1/PD-L1 binding assay kit); details: read-out: PD1-PDL1 HTRF Binding Activity IC50
Method: A. PD1-PDL1 HTRF Binding Activity Test
The effect of compounds and positive compounds of the examples of the present invention on the interaction between PD-1 and PD-L1 was determined by the PD-1/PD-L1 binding assay kit from Cisbio (#64ICP01PEG or 64ICP01PEH). The detailed experimental process was as follows:
1. Pre-diluted compound solution, 4 μL of Tag1-PD-L1 and 4 μL of Tag2-PD1 were added to each well of a 384-well plate;
3. After incubated for 2 hrs at room temperature or overnight at 4° C., plates were read on Envision of Pelkin Elmer; and readings at 665 nm and 620 nm were recorded, and the ratio of the two readings was taken as a reading for each well;
4. The reading of each well after compound treatment was compared with the reading of DMSO treated wells to obtain the percent inhibition of the compound; and
5. IC50 values of compounds and positive compounds of the examples of the present invention were determined by non-linear regression analysis of percent inhibition at different compound concentrations.

[2] = biological target: interaction between PD-1 and PD-L1 expressed on cell surfaces (Homo sapiens (Human), UniProt Q9NZQ7); assay: Jurkat reporter gene cellular assay (Jurkat/NF-κB-luc/PD1 cells cocultured with Raji-PD-L1 cells, OKT-3 stimulation); format: cell-based; details: NF-κB-luc reporter activation fold, 6 hrs; read-out: Cell Activity EC50
Sequence of interaction between PD-1 and PD-L1 expressed on cell surfaces (Q9NZQ7 19-290): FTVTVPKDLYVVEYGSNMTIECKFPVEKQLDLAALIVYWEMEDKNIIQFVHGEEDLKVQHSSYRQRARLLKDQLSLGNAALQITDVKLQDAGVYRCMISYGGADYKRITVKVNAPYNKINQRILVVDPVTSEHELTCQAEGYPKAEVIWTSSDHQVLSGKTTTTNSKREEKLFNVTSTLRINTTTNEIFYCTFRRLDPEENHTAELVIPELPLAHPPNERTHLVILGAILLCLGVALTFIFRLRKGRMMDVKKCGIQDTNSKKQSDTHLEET
Method: B. Jurkat Reporter Gene Cellular Assay
The effect of compounds of the examples of the present invention and positive compounds on the interaction between PD-1 and PD-L1 expressed on cell surfaces, and the related influence on T cell functions, were determined by a Jurkat reporter gene cellular assay.
Briefly, the reporter gene plasmid of NF-κB-luc and the plasmid of human PD-1 were transfected into Jurkat cells to establish a stably transfected cell line capable of stably expressing both PD-1 and NF-κB-Luc reporter genes; the expression level of PD-1 on the cell surface was confirmed by flow cytometry: and the expression of the reporter gene was confirmed via the response of the reporter gene stimulated by OKT-3 and Raiji cells.
In addition, the plasmid of human PD-L1 was transfected into Raji cells to obtain a cell line capable of stably expressing PD-L1. Jurkat/NF-κB-luc/PD1 cells and Raji-PD-L1 cells were then cocultured and stimulated with OKT-3. On this basis, the compounds were added, and the enhancement of the signal pathway of T cell activation by the inhibitory effect of the compounds on the interaction between PD-1 and PD-L1 was evaluated by readings of reporter gene responses. The specific experimental process was as follows:
2. 20 μL of Raji-PD-L1 cell suspension was added to each well with 5*10^4 cells for each well, and was incubated in an incubator for 20 min;
3. 20 μL of Jurkat/NF-κb-luc/PD-1 cell suspension was added to each well with 5*10^4 cells for each well, and well mixed, and 6 hrs later, Bright-glo (Promega, E2620) was applied and plates were read on Envision;
4. the reading of each well treated with the compound was compared with the reading of each well treated with DMSO to obtain the activation fold of the compound; and
5. EC50 values of compounds and positive compounds of the examples of the present invention were determined by non-linear regression analysis of activation folds at different compound concentrations.

Sequence of interaction between PD-1 and PD-L1 (Q9NZQ7 19-238): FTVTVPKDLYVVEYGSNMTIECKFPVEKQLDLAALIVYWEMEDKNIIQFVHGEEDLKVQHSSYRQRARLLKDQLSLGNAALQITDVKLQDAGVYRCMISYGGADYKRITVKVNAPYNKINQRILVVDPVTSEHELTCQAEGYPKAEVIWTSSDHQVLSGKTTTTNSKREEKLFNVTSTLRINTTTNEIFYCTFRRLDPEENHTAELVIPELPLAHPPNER

pIC50 [1] | pEC50 [2] | SMILES
9.48 | 6.64 | COc1cc(C(=O)Nc2cccc(-c3cccc(NC(=O)c4cc(OC)c(CN5CC[C@@H](OC)C5)cn4)c3C)c2C)ncc1CN1CC[C@@H](OC)C1 [Example 50, N,N'-(2,2′-dimethyl-[1,1′-biphenyl]-3,3′-diyl)bis(4-methoxy-5-(((R)-3-methoxypyrrolidin-1-yl)methyl)picolinamide)]
9.66 | 6.54 | COc1cc(C(=O)Nc2cccc(-c3cccc(NC(=O)c4cc(OC)c(CN5CC(OC)C5)cn4)c3C)c2C)ncc1CN1CC(OC)C1 [Example 51, N,N'-(2,2′-dimethyl-[1,1′-biphenyl]-3,3′-diyl)bis(4-methoxy-5-((3-methoxyazetidin-1-yl)methyl)picolinamide)]
9.40 | 6.29 | COc1cc(C(=O)Nc2cccc(-c3cccc(NC(=O)c4cc(OC)c(CN5CC(C)(OC)C5)cn4)c3C)c2C)ncc1CN1CC(C)(OC)C1 [Example 52, N,N'-(2,2′-dimethyl-[1,1′-biphenyl]-3,3′-diyl)bis(4-methoxy-5-((3-methoxy-3-methylazetidin-1-yl)methyl)picolinamide)]
9.82 | 7.28 | COc1cc(C(=O)Nc2cccc(-c3cccc(NC(=O)c4cc(OC)c(CN[C@H]5C[C@@H](O)C5)cn4)c3C)c2C)ncc1CN[C@H]1C[C@@H](O)C1 [Example 53, N,N'-(2,2′-dimethyl-[1,1′-biphenyl]-3,3′-diyl)bis(5-((((1s,3s)-3-hydroxycyclobutyl)amino)methyl)-4-methoxypicolinamide)]
9.68 | 5.32 | COc1cc(C(=O)Nc2cccc(-c3cccc(NC(=O)c4cc(OC)c(CNC5COC5)cn4)c3C)c2C)ncc1CNC1COC1 [Example 54, N,N'-(2,2′-dimethyl-[1,1′-biphenyl]-3,3′-diyl)bis(4-methoxy-5-((oxetan-3-ylamino)methyl)picolinamide)]
9.40 | 7.09 | COc1cc(C(=O)Nc2cccc(-c3cccc(NC(=O)c4cc(OC)c(CN[C@H]5CCOC5)cn4)c3C)c2C)ncc1CN[C@H]1CCOC1 [Example 55, N,N'-(2,2′-dimethyl-[1,1′-biphenyl]-3,3′-diyl)bis(4-methoxy-5-((((S)-tetrahydrofuran-3-yl)amino)methyl)picolinamide)]
9.19 | 6.76 | COc1cc(C(=O)Nc2cccc(-c3cccc(NC(=O)c4cc(OC)c(CN[C@@H]5CCOC5)cn4)c3C)c2C)ncc1CN[C@@H]1CCOC1 [Example 56, N,N'-(2,2′-dimethyl-[1,1′-biphenyl]-3,3′-diyl)bis(4-methoxy-5-((((R)-tetrahydrofuran-3-yl)amino)methyl)picolinamide)]
9.66 | 6.20 | COc1cc(C(=O)Nc2cccc(-c3cccc(NC(=O)c4cc(OC)c(CN5CC6(COC6)C5)cn4)c3C)c2C)ncc1CN1CC2(COC2)C1 [Example 58, N,N'-(2,2′-dimethyl-[1,1′-biphenyl]-3,3′-diyl)bis(5-((2-oxa-6-azaspiro[3.3]heptan-6-yl)methyl)-4-methoxypicolinamide)]
9.51 | 7.15 | COc1cc(C(=O)Nc2cccc(-c3cccc(NC(=O)c4cc(OC)c(CNC[C@@H](O)CC(=O)O)cn4)c3C)c2C)ncc1CNC[C@@H](O)CC(=O)O [Example 59]
10.47 | 6.24 | COc1cc(C(=O)Nc2cccc(-c3cccc(NC(=O)c4cc(OC)c(CN[C@H]5C[C@@H](C(=O)O)C5)cn4)c3C)c2C)ncc1CN[C@H]1C[C@@H](C(=O)O)C1 [Example 60, (1s,1′s,3s,3′s)-3,3′-((((((2,2′-dimethyl-[1,1′-biphenyl]-3,3′-diyl)bis(azanediyl))bis(carbonyl))bis(4-methoxypyridine-6,3-diyl))bis(methylene))bis(azanediyl))bis (cyclobutane-1-carboxylic acid)]
9.74 | 6.50 | COc1cc(C(=O)Nc2cccc(-c3cccc(NC(=O)c4cc(OC)c(CN5CCC[C@H]5C(=O)O)cn4)c3C)c2C)ncc1CN1CCC[C@H]1C(=O)O [Example 61, (2′S)-(((((2,2′-dimethyl-[1,1′-biphenyl]-3,3′-diyl)bis(azanediyl))bis(carbonyl))bis(4-methoxypyridine-6,3-diyl))bis(methylene))di-L-proline]
9.60 | 6.19 | COc1cc(C(=O)Nc2cccc(-c3cccc(NC(=O)c4cc(OC)c(CN5C[C@H](O)C[C@H]5C(=O)O)cn4)c3C)c2C)ncc1CN1C[C@H](O)C[C@H]1C(=O)O [Example 62, (2S,2′S,4R,4′R)-1,1′-(((((2,2′-dimethyl-[1,1′-biphenyl]-3,3′-diyl)bis(azanediyl))bis(carbonyl))bis (4-methoxypyridine-6,3-diyl))bis (methylene))bis(4-hydroxypyrrolidine-2-carboxylic acid)]
9.60 | 5.34 | COc1cc(C(=O)Nc2cccc(-c3cccc(NC(=O)c4cc(OC)c(CN5CCOC[C@H]5C(=O)O)cn4)c3C)c2C)ncc1CN1CCOC[C@H]1C(=O)O [Example 63, (3S,3′S)-4,4′(((((2,2′-dimethyl-[1,1′-biphenyl]-3-3′-diyl)bis(azanediyl))bis (carbonyl))bis(4-methoxypyridine-6,3-diyl))bis(methylene))bis(morpholine-3-carboxylic acid)]
9.19 | 6.16 | COC(=O)CNCc1cnc(C(=O)Nc2cccc(-c3cccc(NC(=O)c4cc(OC)c(CNCC(=O)OC)cn4)c3C)c2C)cc1OC [Example 66]
9.29 | 6.46 | COc1cc(C(=O)Nc2cccc(-c3cccc(NC(=O)c4cc(OC)c(CNCC(=O)O)cn4)c3C)c2C)ncc1CNCC(=O)O [Example 67]
9.51 | 6.58 | COc1cc(C(=O)Nc2cccc(-c3cccc(NC(=O)c4cc(OC)c(CN[C@H]5CCOC5=O)cn4)c3C)c2C)ncc1CN[C@H]1CCOC1=O [Example 68]
9.41 | 6.98 | COc1cc(C(=O)Nc2cccc(-c3cccc(NC(=O)c4cc(OC)c(CN[C@@H](CCO)C(=O)O)cn4)c3C)c2C)ncc1CN[C@@H](CCO)C(=O)O [Example 69]
9.27 | 5.66 | COc1cc(C(=O)Nc2cccc(-c3cccc(NC(=O)c4cc(OC)c(CN[C@@H]5CCOC5=O)cn4)c3C)c2C)ncc1CN[C@@H]1CCOC1=O [Example 70, N,N'-(2,2′-dimethyl-[1,1′-biphenyl]-3,3′-diyl)bis(4-methoxy-5-((((R)-2-oxotetrahydrofuran-3-yl)amino)methyl)picolinamide)]
9.48 | 6.12 | COc1cc(C(=O)Nc2cccc(-c3cccc(NC(=O)c4cc(OC)c(CN[C@H](CCO)C(=O)O)cn4)c3C)c2C)ncc1CN[C@H](CCO)C(=O)O [Example 71]
9.32 | 5.81 | COc1cc(C(=O)Nc2cccc(-c3cccc(NC(=O)c4cc(OC)c(CN[C@@H]5COC(=O)C5)cn4)c3C)c2C)ncc1CN[C@@H]1COC(=O)C1 [Example 72, N,N'-(2,2′-dimethyl-[1,1′-biphenyl]-3,3′-diyl)bis(4-methoxy-5-((((S)-5-oxotetrahydrofuran-3-yl)amino)methyl)picolinamide)]
